Source: PubChem BioAssay (NCI)
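The compound was tested at five concentrations on cells cultured in 96-well plates, with a 48-hour exposure period. The concentration for 50% growth inhibition is given as GI50. TGI: concentration producing complete growth inhibition.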

Tests used:
Test in all cases: NCI tumour cell line growth inhibition, 48 h
[1] = system: HT29 colon
[2] = system: K-562 leukemia
[3] = system: OVCAR-8 ovarian
[4] = system: CCRF-CEM leukemia
[5] = system: NCI-H23 lung
[6] = system: HS 578T breast
[7] = system: OVCAR-4 ovarian
[8] = system: OVCAR-3 ovarian
[9] = system: KM12 colon
[10] = system: SK-OV-3 ovarian
[11] = system: SN12C renal
[12] = system: SR leukemia
[13] = system: SF-539 CNS
[14] = system: SW-620 colon
[15] = system: NCI-H522 lung
[16] = system: MDA-MB-231 breast
[17] = system: 786-0 renal
[18] = system: BT-549 breast
[19] = system: RPMI-8226 leukemia
[20] = system: SF-268 CNS
[21] = system: HL-60(TB) leukemia
[22] = system: PC-3 prostate
[23] = system: HCT-116 colon
[24] = system: MALME-3M melanoma
[25] = system: HOP-62 NSCLC
[26] = system: UO-31 renal
[27] = system: T-47D breast
[28] = system: M14 melanoma
[29] = system: MDA-MB-468 breast
[30] = system: RXF 393 renal

Work on `O=C(CNc1nc(-c2ccccc2)cs1)Nc1ccc(Cl)cc1` yielded a GI50 [1] of 348 nM, a TGI [1] of 1320 nM and a GI50 [2] of 224 nM. For the same compound, the TGI [2] was greater than 100 µM, the GI50 [3] was 989 nM and the GI50 [4] was 243 nM. For the same compound, the TGI [4] was greater than 21.5 µM, the GI50 [5] was 407 nM and the TGI [5] was 1020 nM. For the same compound, the GI50 [6] was 1270 nM, the TGI [6] was greater than 91.3 µM and the GI50 [7] was 1340 nM. It also gave a TGI [7] of 3.17 µM, a GI50 [8] of 552 nM and a TGI [8] of 1310 nM. It also gave a GI50 [9] of 828 nM, a TGI [9] of 2530 nM and a GI50 [10] of 1390 nM. It also gave a TGI [10] of 4.54 µM, a GI50 [11] of 465 nM and a TGI [11] of 1230 nM. It also gave a GI50 [12] of 25.5 µM, a TGI [12] greater than 100 µM and a GI50 [13] of 518 nM. For the same compound, the TGI [13] was 971 nM, the GI50 [14] was 683 nM and the TGI [14] was 1910 nM. For the same compound, the GI50 [15] was 152 nM, the TGI [15] was 305 nM and the GI50 [16] was 480 nM. It also gave a TGI [16] of 1390 nM, a GI50 [17] of 217 nM and a TGI [17] of 469 nM. It also gave a GI50 [18] of 216 nM, a TGI [18] of 643 nM and a GI50 [19] of 331 nM. It also gave a TGI [19] of 2720 nM, a GI50 [20] of 1880 nM and a TGI [20] of 10.1 µM. The GI50 [21] was 304 nM, the TGI [21] was 2260 nM and the GI50 [22] was 519 nM. For the same compound, the TGI [22] was 2610 nM, the GI50 [23] was 196 nM and the TGI [23] was 796 nM. For the same compound, the GI50 [24] was 507 nM, the TGI [24] was 1200 nM and the GI50 [25] was 1350 nM. For the same compound, the TGI [25] was 2730 nM, the GI50 [26] was 654 nM and the TGI [26] was 2030 nM. It also gave a GI50 [27] of 337 nM, a TGI [27] of 2440 nM and a GI50 [28] of 341 nM. The TGI [28] was 1680 nM, the GI50 [29] was 394 nM and the TGI [29] was 877 nM. It also gave a GI50 [30] of 514 nM.
